Data on 8 compounds can be found in publication PMC11237774, “On-target, dual aminopeptidase inhibition provides cross-species antimalarial activity” (mBio, 2024).

By IC50 is commonly meant the point on the concentration scale where inhibition reaches its midpoint. For orientation: EC50 means the concentration needed to bring the measured effect to its halfway point.

Read-outs that look alike come from different tables or passages of the source.

The subject of assay [1] is PfNF54-s16-GFP late (IV–V) stage gametocytes. The assay is described as follows: Image-based gametocyte viability assay. It counts as cell-based, P. falciparum. As to conditions: Plasmodium falciparum; stages IV–V, 72 h; read-out: IC50 Late-stage Gametocytes (mean ± SD). Here is the method: (§1) Viability assays were performed as described previously ([32], [33]) against PfNF54-s16-GFP early(I–III), late (IV–V), and mature (V) stage gametocytes. Gametocytes were assessed at the appropriate time points following gametogenesis; early stage (day 2), late stage (day 8), and mature stage (day 12). Compounds diluted in 4% DMSO were transferred into 384-well imaging plates; gametocytes prepared as described previously (35) were added, and plates were incubated for 72 h in 5% CO2, 5% O2, and 60% humidity at 37°C. After 72 h incubation, 5 µL of MitoTracker Red CMH2XRos in phosphate buffered saline (PBS) was added per well, and plates were incubated overnight. Image acquisition and analysis were undertaken on the Opera QEHS micro-plate confocal imaging system. An Acapella-based script using the CMH2XRos fluorescent signal and the GFP-designated object quantifying viable stage-dependent parasite morphology identified gametocytes. Gametocyte viability was calculated as a percentage of the positive (5 µM puromycin) and negative (0.4% DMSO) controls. IC50 values were calculated using a 4-parameter log dose, non-linear regression analysis, with sigmoidal dose response (variable slope) curve fit using GraphPad Prism (ver 4.0). No constraints were used in the curve fit. […] Experiments were performed as two or three biological replicates in duplicate.

The test system of assay [2] is PfNF54-s16-GFP mature (V) stage gametocytes. In words: Image-based gametocyte viability assay. As to conditions: Plasmodium falciparum, 72 h, read-out: IC50 Mature-stage Gametocytes (mean ± SD). Format: cell-based, P. falciparum. On the procedure:
as §1

The subject of assay [3] is PfNF54-s16-GFP early (I–III) stage gametocytes. The assay is described as follows: Image-based gametocyte viability assay. As to conditions: Plasmodium falciparum, 72 h, read-out: IC50 Early-stage Gametocytes (mean ± SD). It counts as cell-based, P. falciparum. Here is the method: Viability assays were performed as described previously ([32], [33]) against PfNF54-s16-GFP early(I–III), late (IV–V), and mature (V) stage gametocytes. Gametocytes were assessed at the appropriate time points following gametogenesis; early stage (day 2), late stage (day 8), and mature stage (day 12). Compounds diluted in 4% DMSO were transferred into 384-well imaging plates; gametocytes prepared as described previously (35) were added, and plates were incubated for 72 h in 5% CO2, 5% O2, and 60% humidity at 37°C. After 72 h incubation, 5 µL of MitoTracker Red CMH2XRos in phosphate buffered saline (PBS) was added per well, and plates were incubated overnight. Image acquisition and analysis were undertaken on the Opera QEHS micro-plate confocal imaging system. An Acapella-based script using the CMH2XRos fluorescent signal and the GFP-designated object quantifying viable stage-dependent parasite morphology identified gametocytes. Gametocyte viability was calculated as a percentage of the positive (5 µM puromycin) and negative (0.4% DMSO) controls. IC50 values were calculated using a 4-parameter log dose, non-linear regression analysis, with sigmoidal dose response (variable slope) curve fit using GraphPad Prism (ver 4.0). No constraints were used in the curve fit. Chloroquine, artesunate, pyronaridine, pyrimethamine, dihydroartemisinin (DHA), and methylene blue were used as control compounds. Experiments were performed as two or three biological replicates in duplicate.

Assay [4] has as its system P. falciparum Dd2 parasites. In words: Fractional inhibitory concentration, artemisinin and MMV1557817 interaction. Format: cell-based. On the procedure:
Fractional inhibitory concentrations (FIC) were determined as previously described ([44]). […] The FIC for each drug was determined by EC50 of drug in a mixture/EC50 of drug alone, and the sum of FIC was determined by the addition of the two individual FIC values. Synergistic FIC is described as <1, additive = 1 < 2, and antagonism > 2 ([44]).

Assay [5] relates to MMV1557817-resistant parasites. The assay is described as follows: 72 h killing assay, MMV1557817-resistant parasites versus parental Dd2. It counts as cell-based, P. falciparum.
Assay [6] deals with P. vivax clinical isolates. In words: Ex vivo drug susceptibility assay (schizont maturation) on clinical isolates. It counts as cell-based. On the procedure: (§2) Plasmodium isolates were collected from patients attending public health clinics in Timika (Papua, Indonesia), a region endemic for multidrug-resistant strains of P. vivax and P. falciparum ([38][–][40]). Patients with symptomatic malaria presenting to an outpatient facility were recruited into the study if infected with either P. falciparum or P. vivax, with a parasitemia of between 2,000 µL^−1 and 80,000 µL^−1, and the majority (>60%) of asexual parasites at the ring stage of development. Venous blood (5 mL) was collected by venipuncture, and after removal of patient white blood cells using Plasmodipur filters (EuroProxima B.V., The Netherlands), packed infected red blood cells (iRBCs) were used for the ex vivo drug susceptibility assay.
(§3) Drug plates were pre-dosed by diluting the compounds in 50% methanol followed by lyophilization and storage at 4°C. Drug susceptibility of P. vivax and P. falciparum isolates was measured using a protocol modified from the WHO microtest as described previously ([40], [41]). […] A candle jar was used to mature the parasites at 37.0°C for 35–56 h. […] Thick blood films made from each well were stained with 5% Giemsa solution for 30 min and examined microscopically. The number of schizonts per 200 asexual-stage parasites was determined for each drug concentration and normalized to the control well without drug. The dose response data were analyzed using non-linear regression analysis, and the EC50 value was derived using an inhibitory sigmoid Emax model (In Vitro Analysis and Reporting Tool [IVART] [42, 43]).

Assay [7] deals with P. falciparum clinical isolates. The assay is described as above. Format: cell-based. Here is the method: as §2, §3
For a further assay, the system named is Pf3D7. The assay is described as follows: Parasite reduction ratio assay. Format: cell-based, P. falciparum. Here is the method: Assays were performed as described previously with some alterations ([37]). […] Specifically, media containing compound was placed in wells every 24 h for up 120 h. […] Parasite growth was measured at day 21 using SYBR green I as described above. Fluorescence was used to determine at what treatment day wells became positive for growth when compared with the well before it; greater than double the fluorescence was determined to be a positive well. […] Experiments were performed in two or three biological replicates in quadruplicate.

Setting [8] is: Plasmodium vivax, ex vivo clinical isolates, n = 6, read-out: P. vivax median EC50 (range).
Where [9] appears, read: ex vivo clinical isolates, n = 6, read-out: P. vivax median EC50 (range).
Where [10] appears, read: Plasmodium falciparum, ex vivo clinical isolates, n = 15, read-out: P. falciparum median EC50 (range).

`C[C@H]1[C@@H](O)O[C@@H]2O[C@@]3(C)CC[C@H]4[C@H](C)CC[C@@H]1[C@@]24OO3` [DHA, dihydroartemisinin]: the IC50 in assay [1] amounted to 35 ± 12 nM; in assay [2], 103 ± 30 nM; in assay [3] (stages I–III), 16 ± 2 nM.
For `CN(C)c1ccc2nc3ccc(=[N+](C)C)cc-3sc2c1` [Methylene Blue, methylene blue] the same measures were 52 ± 2 nM, 63 ± 26 nM and 110 ± 4 nM.
For the compound `C[C@@H]1CC[C@H]2[C@@H](C)C(=O)O[C@@H]3O[C@@]4(C)CC[C@@H]1[C@]32OO4` [artemisinin, reference compound], the “artemisinin mean FIC ± SEM” value in assay [4] (ratio MMV1557817:artemisinin 0:5) is 1.00 ± 0.12; in assay [4] (ratio MMV1557817:artemisinin 1:4), 0.75 ± 0.07; in assay [4] (ratio MMV1557817:artemisinin 2:3), 0.37 ± 0.06; in assay [4] (ratio MMV1557817:artemisinin 3:2), 0.16 ± 0.03; in assay [4] (ratio MMV1557817:artemisinin 4:1) it was 0.06 ± 0.01. In addition, in assay [5], the “change of susceptibility compared with parental Dd2” value is “marginally but significantly sensitized”.
For `CCN(CC)CCCC(C)Nc1ccnc2cc(Cl)ccc12` (stereo not drawn) [chloroquine], the EC50 in assay [6] (Plasmodium vivax, read-out: P. vivax median EC50 (range), ex vivo clinical isolates, n = 6) was found to be 36 nM; in assay [6] (read-out: P. vivax median EC50 (range), ex vivo clinical isolates, n = 6, listed as CQ), 36.4 nM; in assay [7] (Plasmodium falciparum, read-out: P. falciparum median EC50 (range), ex vivo clinical isolates, n = 15), 65 nM; in assay [7] (read-out: P. falciparum median EC50 (range), ex vivo clinical isolates, n = 15, listed as CQ), 64.8 nM. Further, the “99.9% PCT” value with Pf3D7 (Pf3D7, 10× EC50) came to 53 h. For the same compound, the Lag phase with Pf3D7 (Pf3D7, 10× EC50) is 0 h. Also, the “Log (PRR)” value in the assay with Pf3D7 (Pf3D7, 10× EC50, over one cycle) came to 3.9 ± 0.2. In addition, the IC50 in assay [3] came to 157 ± 3.5 nM.
As for `OC(c1cc(C(F)(F)F)nc2c(C(F)(F)F)cccc12)C1CCCCN1` (stereo not drawn) [mefloquine], the figures for the EC50 in assay [6] (setting [8]), in assay [6] (setting [9]) and in assay [7] (setting [10]) were 11.2 nM, 11 nM and 10 nM, respectively.
In the case of `Clc1ccc2c(N3CCN(CCCN4CCN(c5ccnc6cc(Cl)ccc56)CC4)CC3)ccnc2c1` [piperaquine], the EC50 in assay [6] (setting [8]) is 46.6 nM; in assay [6] (setting [9]), 47 nM; in assay [7] (setting [10]), 60.8 nM; in assay [7] (ex vivo clinical isolates, n = 15, read-out: P. falciparum median EC50 (range)) it was 61 nM.
`COc1ccc(C[C@H](N)C(=O)N[C@H]2[C@@H](O)[C@H](n3cnc4c(N(C)C)ncnc43)O[C@@H]2CO)cc1` [puromycin]: the IC50 in assay [1] was found to be 94 ± 5 nM; in assay [2], 73 ± 24 nM; in assay [3] (stages I–III), 163 ± 18 nM.
In the same order, the values of `COc1ccc2nc3cc(Cl)ccc3c(Nc3cc(CN4CCCC4)c(O)c(CN4CCCC4)c3)c2n1` [pyronaridine] are 2280 ± 679 nM, 1250 ± 120 nM and 67 ± 7 nM.
